In ChEMBL document CHEMBL1152167, “Synthesis and cytotoxic activities of 1-benzylidine substituted beta-carboline derivatives” (Bioorg Med Chem Lett, 2008):

What was measured:
Assay type in all cases: functional, cell-based
KB = assay: Cytotoxicity against human KB cells by MTT assay
HepG2 = assay: Cytotoxicity against human HepG2 cells by MTT assay
769-P = assay: Cytotoxicity against human 769-P cells by MTT assay
A549 = assay: Cytotoxicity against human A549 cells by MTT assay
HeLa = assay: Cytotoxicity against human HeLa cells by MTT assay
HT-29 = assay: Cytotoxicity against human HT-29 cells by MTT assay
Bel-7402 = assay: Cytotoxicity against human Bel7402 cells by MTT assay
A-375 = assay: Cytotoxicity against human A375 cells by MTT assay
[1] = Cytotoxicity against human 786-O cells by MTT assay; conditions: 786-0
BGC-823 = assay: Cytotoxicity against human BGC823 cells by MTT assay

SMILES | IC50 (KB) | IC50 (HepG2) | IC50 (769-P) | IC50 (A549) | IC50 (HeLa) | IC50 (HT-29) | IC50 (Bel-7402) | IC50 (A-375) | IC50 [1] | IC50 (BGC-823)
O=[N+]([O-])c1ccc(/C=C/c2nccc3c4ccccc4n(CCCc4ccccc4)c23)cc1 | > 200 µM | > 200 µM | > 200 µM | > 200 µM | > 200 µM | > 200 µM | > 200 µM | > 200 µM | > 200 µM | > 200 µM
CCCCOc1ccc2c3cc[n+](Cc4ccccc4)c(/C=C/c4ccc([N+](=O)[O-])cc4)c3n(CCCc3ccccc3)c2c1 | 2.4 µM | 1.3 µM | 3.1 µM | 2.8 µM | 2.9 µM | 2.5 µM | 1.5 µM | 4.5 µM | 2.7 µM | 4.1 µM
Cc1nccc2c1[nH]c1ccccc12 [HARMAN] | – | 115 µM | – | – | 186 µM | – | 151 µM | – | – | 215 µM
COc1ccc(/C=C/c2nccc3c2[nH]c2ccccc23)cc1 | 29.5 µM | 60.5 µM | 25.6 µM | 47.1 µM | 142 µM | 21.3 µM | 118 µM | 42.2 µM | 12.9 µM | 167 µM
COc1ccc(/C=C/c2c3[nH]c4ccccc4c3cc[n+]2Cc2ccccc2)cc1 | 17.9 µM | 9.6 µM | 4.9 µM | 10.8 µM | 32.1 µM | 9.4 µM | 22.5 µM | 28.2 µM | 10 µM | 22.9 µM
CCCCOc1ccc2c3ccnc(/C=C/c4ccc(OC)cc4)c3n(CCCc3ccccc3)c2c1 | 150 µM | 92.9 µM | 62.9 µM | 78.6 µM | 92.3 µM | 54.3 µM | > 200 µM | 64.3 µM | 89.1 µM | > 200 µM
CCCCn1c2ccccc2c2ccnc(C)c21 | – | 145 µM | – | – | 102 µM | – | 145 µM | – | – | 264 µM
Cc1nccc2c3ccccc3n(CCCc3ccccc3)c12 | – | 449 µM | – | – | > 1000 µM | – | 449 µM | – | – | 987 µM
CC(=O)n1c2ccccc2c2ccnc(/C=C/c3ccc([N+](=O)[O-])cc3)c21 | > 200 µM | 197 µM | > 200 µM | > 200 µM | > 200 µM | > 200 µM | > 200 µM | > 200 µM | > 200 µM | > 200 µM
COc1ccc(/C=C/c2c3c(cc[n+]2Cc2ccccc2)c2ccccc2n3CCCc2ccccc2)cc1 | 0.93 µM | 2.1 µM | 4.6 µM | 3.9 µM | 4.5 µM | 4.3 µM | 2.9 µM | 0.68 µM | 3.2 µM | 0.46 µM
CCCCn1c2ccccc2c2cc[n+](Cc3ccccc3)c(/C=C/c3ccc(OC)cc3)c21 | 3.9 µM | 6.7 µM | 5.1 µM | 9.1 µM | 6.7 µM | 7.8 µM | 7.7 µM | 8.4 µM | 11.2 µM | 21.8 µM
C(=C\c1nccc2c1[nH]c1ccccc12)/c1ccccc1 | > 200 µM | 171 µM | 7.8 µM | 36.7 µM | 139 µM | 62.9 µM | 190 µM | 71.4 µM | 37.5 µM | > 200 µM
CCCCOc1ccc2c3cc[n+](Cc4ccccc4)c(/C=C/c4ccc(OC)cc4)c3n(CCCc3ccccc3)c2c1 | 2.7 µM | 8.9 µM | 8.2 µM | 3.4 µM | 6.8 µM | 3.2 µM | 1.6 µM | 7.3 µM | 4.6 µM | 7.1 µM
COc1ccc(/C=C/c2nccc3c4ccccc4n(CCCc4ccccc4)c23)cc1 | 58.9 µM | 186 µM | 123 µM | 127 µM | > 200 µM | > 200 µM | > 200 µM | > 200 µM | 92.3 µM | > 200 µM
CCCCOc1ccc2c3ccnc(/C=C/c4ccc([N+](=O)[O-])cc4)c3n(CCCc3ccccc3)c2c1 | > 200 µM | > 200 µM | > 200 µM | > 200 µM | > 200 µM | > 200 µM | > 200 µM | > 200 µM | > 200 µM | > 200 µM
COc1cc(/C=C/c2nccc3c2[nH]c2ccccc23)cc(OC)c1OC | 24.6 µM | 32.2 µM | 5.7 µM | 12.8 µM | 50.5 µM | 27.8 µM | 34.6 µM | 23.9 µM | 14.4 µM | 66.2 µM
CCCCn1c2ccccc2c2ccnc(/C=C/c3ccc(OC)cc3)c21 | 30.1 µM | 66 µM | 25.2 µM | 38.1 µM | 88.8 µM | > 200 µM | 29.7 µM | 59.5 µM | 67.4 µM | 141 µM
CC(=O)n1c2ccccc2c2cc[n+](Cc3ccccc3)c(/C=C/c3ccc([N+](=O)[O-])cc3)c21 | 15.4 µM | 5.2 µM | 19.8 µM | 7.6 µM | 14.4 µM | 10.5 µM | 17.9 µM | 25.3 µM | 28.6 µM | 14.8 µM
